# From patent US11766469B2, “Q-peptide hydrogel promotes immune modulation and macrophage differentiation” (Quthero, Inc., priority 2019, dated 2023)
# B1: recombinant human TGF-β3: recombinant human TGF-β3 used to treat wounds in a clinical trial (protein, UniProt P10600 301-412, looked up)
# Transforming growth factor …: ALDTNYCFRNLEENCCVRPLYIDFRQDLGWKWVHEPKGYYANFCSGPCPYLRSADTTHSTVLGLYNTLNPEASASPCCVPQDLEPLTILYYVGRTPKVEQLSNMVVKSCKCS
# Legend:
# [1] = test system: rat myocardial infarction model; settings: cited from earlier work
# [2] = test system: bone marrow derived macrophages (BMDMs); test: BMDM culture on hydrogel films: cell attachment, total cell count, viability (Zombie Violet); type: cell-based, C57BL/6 mice; settings: after 24 hours of culture
# Experimental: Murine bone marrow derived macrophages (BMDM) were isolated from 8-12 week-old C57BL/6 mice (Charles River) according to a protocol approved by the University of Toronto Animal Care Committee. The mice were euthanized, and the femur and tibias were removed and placed in complete RPMI 1640+L-glutamine media (Gibco, 10% heat inactivated Fetal Bovine Serum, FBS, 1% Pen/Strep). The bones were separated and sterilized in 70% ethanol for 10 minutes. The heads of the bones were cut off, and the marrow was flushed out with a 23 G needle containing fresh complete RPMI 1640 media. The remaining cell culture media and bone marrow was homogenized by gentle pipetting. The cells were spun down and resuspended in ACK Lysing Buffer (Gibco) for 1 min to lyse remaining red blood cells. The lysing buffer was diluted with PBS, and the cell suspension was re-spun, and counted. […]
# Adherent macrophages were detached by incubating with 0.25% trypsin-EDTA for 10 minutes. […] After 24 hours of culture, cell culture media was collected for ELISA analysis by Eve Technologies (Calgary, AB), and the concentrations of INF-γ, IL-1β, IL-2, IL-4, IL-6, IL-10, IL-12 p′70, GM-CSF, MCP-1, TNF-α, TGF-β31, TGF-β2, and TGF-β3 were measured. […]
# [3] = test system: bone marrow derived macrophages (BMDMs); test: ELISA of cytokines released by BMDMs into culture media; type: cell-based, C57BL/6 mice; settings: 24 hours of culture
# Experimental: Murine bone marrow derived macrophages (BMDM) were isolated from 8-12 week-old C57BL/6 mice (Charles River) according to a protocol approved by the University of Toronto Animal Care Committee. The mice were euthanized, and the femur and tibias were removed and placed in complete RPMI 1640+L-glutamine media (Gibco, 10% heat inactivated Fetal Bovine Serum, FBS, 1% Pen/Strep). The bones were separated and sterilized in 70% ethanol for 10 minutes. The heads of the bones were cut off, and the marrow was flushed out with a 23 G needle containing fresh complete RPMI 1640 media. The remaining cell culture media and bone marrow was homogenized by gentle pipetting. The cells were spun down and resuspended in ACK Lysing Buffer (Gibco) for 1 min to lyse remaining red blood cells. The lysing buffer was diluted with PBS, and the cell suspension was re-spun, and counted. Cells were seeded at 3 million cells/well in non-adherent 6-well culture plates containing 2 mL of complete RPMI 1640 media with 20 ng/mL of Macrophage Colony Stimulating Factor (M-CSF, Miltenyi Biotec). Half (50%) of the media was changed on day 3, and 5. On day 7, adherent cells were used as macrophages for experiments. Macrophage purity, as identified by F4/80+, CD11b+ positive staining, under all culture stimulations is >90%, consistent with previous studies (FIG. 6B).
# Adherent macrophages were detached by incubating with 0.25% trypsin-EDTA for 10 minutes. Cells were polarized in response to the following treatment conditions: blank-included cultivation on tissue culture plastics; soluble Q-Peptide (650 μM) applied to macrophages cultivated on tissue culture plastics; and macrophages cultivated on the following hydrogel films: no peptide collagen-chitosan (empty) film, scrambled Q-Peptide film, and Q-Peptide film. BMDMs were polarized with lipopolysaccharide (LPS; 100 ng/mL) for pro-inflammatory, M(LPS), and IL-4 ([…]) for anti-inflammatory, M(IL-4) positive polarization controls. Cells were seeded directly onto a non-adherent 6-well plate for the blank and soluble Q-Peptide conditions, and onto solvent cast films for the empty film, scrambled Q-Peptide film, and Q-Peptide film at a concentration of 100,000 cells/cm^2. After 24 hours of culture, cell culture media was collected for ELISA analysis by Eve Technologies (Calgary, AB), and the concentrations of INF-γ, IL-1β, IL-2, IL-4, IL-6, IL-10, IL-12 p′70, GM-CSF, MCP-1, TNF-α, TGF-β31, TGF-β2, and TGF-β3 were measured.
# wounds = wounds treated; cited from earlier work
# [4] = compared to blank, soluble Q-Peptide and empty film (LPS: vs Q-Peptide film)
molecule,measurement,setting,value
QHREDGS (SEQ ID NO: 1) with biotin-Ahx N-terminal modification [soluble Q-Peptide],effectiveness in myocardial infarction model,[1],effective
same,final cell count (cells in solution and attached),[2],did not affect the final cell count
same,cell attachment (number of adhered cells/mm2),[2]; compared with blank culture conditions,decrease in cell attachment
same,BMDM cytokine release / cytokine concentration (overall),[3],only had an effect on BMDM cytokine release when immobilized to a hydrogel
lipopolysaccharide [LPS],concentration of IL-6,[3]; [4],an order of magnitude greater
same,concentration of MCP-1,[3]; [4],an order of magnitude greater
same,concentration of IL-10,[3]; relative to the other culture conditions (LPS: vs Q-Peptide film),an order of magnitude greater
B1,primary and secondary outcomes of a Phase III trial,wounds,failed to reach primary and secondary outcomes
